We go through 1 molecule from US20180092908A1, “SMALL MOLECULE OXIDIZERS OF PDI AND THEIR USE” (THE TRUSTEES OF COLUMBIA UNIVERSITY IN THE CITY OF NEW YORK, priority 2015, published 2018).

In brackets after ≈: the same amount, converted by molar mass.

Data set [1] in a line: Mouse plasma protein binding assay. The data set is classed as in vitro ADME. To be noted: mouse; plasma, compound 2000 ng/mL, mean±SD (n=3).
Procedure: (§1) A test compound at the concentration of 2000 ng/mL in plasma was added into the sample chamber, and a dialysis buffer phosphate-buffered saline (PBS) was added into the buffer chamber, covering the unit with sealing tape and incubating for 4 hours at 37° C. at approximately 100 rpm on an orbital shaker. The incubation samples were taken from both plasma and buffer chamber at the end of the incubation, and then samples were analyzed by LC-MS/MS. Protein binding and free fraction percentage were determined using peak area ratio of analyte to internal standard. Fraction bound percent was calculated as: % Bound=100*(Cplasma−CPBS)/Cplasma. The fraction recovered percent was calculated as: % Recovery=(VPBS*CPBS+Vplasma*Cplasma)/(Vplasma*Cspike) where VPBS is Volume of PBS, Vplasma is Volume of Plasma, CPBS is Drug concentration in PBS (Analyte/IS peak area ratio), Cplasma is Drug concentration in plasma (Analyte/IS peak area ratio), Cspike is Drug concentration in spiked plasma (Analyte/IS peak area ratio).
Another data set deals with plasma proteins. Kind of data set: Mouse plasma protein binding assay. The following applies: mouse plasma. The data set is classed as in vitro ADME.
A short description of a further data set: physchem. The following applies: organic solvent or mixture.
A short description of data set [2]: Single-dose pharmacokinetic study (BBB penetration). The data set is classed as in vivo. The following applies: single-dose 20 mg/kg, intravenously or orally, mice. On the procedure:
LOC14 administered via (FIG. 17A) intravenous or (FIG. 17B) oral route to wild-type C57BL/6j mice at 20 mg/kg. The concentration of compound in the brain tissue and plasma is shown for each individual mouse (represented by dots). The horizontal lines represent the mean±SD (n=3).
Showing promising in vitro metabolic properties, LOC14 was tested in a single-dose pharmacokinetic (PK) study. This was a pilot study to evaluate the ability of LOC14 to traverse the blood-brain barrier (BBB). In this study, LOC14 was administered via two routes, intravenously (FIG. 17A) or orally (FIG. 17B), at a single-dose of 20 mg/kg to wild-type C57BL/6j mice.

Another data set deals with cortical neurons. Nature of the data set: Tau4R-induced neurodegeneration brain slice assay. The class given is cell-based. To be noted: rat corticostriatal brain slice, tau4R transfection, 4 days. How it is done: Rat corticostriatal brain slice explants co-transfected with YFP and the tau isoform with 4 tubulin-binding repeats (Tau4R) were treated with LOC14, an analog of LOC14 “BIT fragment” (1,2,Benzisothiazol-3-one), or DMSO only for 4 days. Data are plotted as mean±SEM from one of five representative experiments. *Significant by ANOVA followed by Dunnett's post hoc comparison test at p<0.05.
Next, whether LOC14 could be neuroprotective in additional models of neurodegenerative diseases was explored. […] In this rat corticostriatal brain slice assay, cortical neuron degeneration is induced by biolistic transfection with tau, in this case a tau isoform with 4 tubulin-binding repeats (“tau4R”) which is implicated in frontotemporal dementias and more broadly in Alzheimer's disease.

Data set [3] has as its target T1, recombinant catalytic a domain of human PDI A1 (PDIa) (Homo sapiens, UniProt P07237).
T1 construct: made in house; host or cells: Escherichia coli BL21-Gold (DE3)
Kind of data set: Insulin aggregation assay (PDIa reductase activity). The class given is biochemical.

The target in data set [4] is T1, recombinant catalytic a domain of human PDI A1 (PDIa). The description is as above. The data set is classed as biochemical. This is another data set of the same source.

T1 sequence (P07237 with tags, fused parts or gaps): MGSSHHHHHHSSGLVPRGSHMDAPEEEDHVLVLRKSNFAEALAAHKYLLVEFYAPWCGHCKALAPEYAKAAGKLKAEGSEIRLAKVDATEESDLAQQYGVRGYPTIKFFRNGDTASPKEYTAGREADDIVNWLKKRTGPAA
Procedure for plasma proteins: as §1

On to `O=C(C1CC1)N1CCN(Cn2sc3ccccc3c2=O)CC1` [LOC14, 2-((4-(cyclopropanecarbonyl)piperazin-1-yl)methyl)benzo[d]isothiazol-3(2H)-one], for which, in data set [1], the recovery at 4 h, 2000 ng/mL came out at 113.8 ± 0.76%. In addition, the “binding to the plasma proteins” value in the data set on plasma proteins was “low binding”. Moreover, the solubility in the data set “physchem” (DMSO) was found to be 40 mg/mL (≈ 126 mM); in the data set “physchem” (EtOH), 20 mg/mL (≈ 63 mM); in the data set “physchem” (MeOH), 40 mg/mL (≈ 126 mM); in “physchem” (NMP), 80 mg/mL (≈ 252 mM). For the same molecule, the blood-brain barrier penetration entry in data set [2] is recorded as “penetrated the BBB”. Moreover, the tolerability result in data set [2] was “well tolerated”. Also, in the data set with cortical neurons, the “neuroprotection in tau-mediated neurodegeneration assay” value is “strongly and reproducibly neuroprotective”. In addition, in data set [3] (Table 5), the “Insulin Assay (either active or inactive)” value was “Active”. Further, the “PDI's enzymatic activity after dilution of pre-formed complex” value in data set [3] (compound 750 μM + PDIa 500 μM, diluted 100-fold) is given as “complete recovery”. The “inhibition of PDIa enzymatic activity” value in data set [4] (compound 75 μM, PDIa 5 μM) is “almost completely inhibit”. The “inhibition of PDI's reduction of insulin without dilution” value in data set [4] (compound 750 μM) is “able to inhibit”.
